Reference: patent US10405547B2, “Substituted cyclic amides as herbicides” (FMC Corporation, priority 2015, dated 2019)

How the values were obtained:
Format in all cases: in vivo
[1] = test system: ryegrass, Italian (Lolium multiflorum); assay: Test A preemergence, Italian ryegrass; settings: 0 to 100 scale (0 no effect, 100 complete control)
How it was run: (§1)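 Injury scores (0 no effect, 100 complete control) were assigned by visually comparing treated with untreated plants after about 10 days of greenhouse growth. Seeds for soil treatment were sown into a loam and sand blend, while plants for foliar treatment grew in pots of that same blend.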

[2] = test system: rice (Oryza sativa); assay: Test B flooded paddy test, rice; settings: applied to paddy water, visual rating after 13 to 15 days, scale 0 (no effect) to 100 (complete control)
How it was run: (§2)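 Ratings were visual and made relative to untreated controls after 13 to 15 greenhouse days.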

[3] = test system: blackgrass (Alopecurus myosuroides); assay: Test A postemergence, blackgrass; settings: visual injury, 0 to 100 scale (0 no effect, 100 complete control), approximately 10 days
How it was run: as §1

[4] = test system: kochia (Kochia scoparia); assay: Test A preemergence, kochia; settings: 0 to 100 scale (0 no effect, 100 complete control)
How it was run: as §1

[5] = test system: galium (catchweed bedstraw, Galium aparine); assay: Test A postemergence, galium; settings: visual injury, 0 to 100 scale (0 no effect, 100 complete control), approximately 10 days
How it was run: as §1

[6] = test system: ragweed (common ragweed, Ambrosia elatior); assay: Test A preemergence, ragweed; settings: 0 to 100 scale (0 no effect, 100 complete control)
How it was run: as §1

[7] = test system: ryegrass, Italian (Lolium multiflorum); assay: Test A postemergence, Italian ryegrass; settings: visual injury, 0 to 100 scale (0 no effect, 100 complete control), approximately 10 days
How it was run: as §1

[8] = test system: barnyardgrass (Echinochloa crus-galli); assay: Test A preemergence, barnyardgrass; settings: 0 to 100 scale (0 no effect, 100 complete control)
How it was run: as §1

[9] = test system: foxtail, giant (Setaria faberii); assay: Test A postemergence, giant foxtail; settings: visual injury, 0 to 100 scale (0 no effect, 100 complete control), approximately 10 days
How it was run: as §1

[10] = test system: wheat (Triticum aestivum); assay: Test A postemergence, wheat; settings: visual injury, 0 to 100 scale (0 no effect, 100 complete control), approximately 10 days
How it was run: as §1

[11] = test system: sedge, umbrella (small-flower umbrella sedge, Cyperus difformis); assay: Test B flooded paddy test, umbrella sedge; settings: applied to paddy water, visual rating after 13 to 15 days, scale 0 (no effect) to 100 (complete control)
How it was run: as §2

[12] = test system: ragweed (common ragweed, Ambrosia elatior); assay: Test A postemergence, ragweed; settings: visual injury, 0 to 100 scale (0 no effect, 100 complete control), approximately 10 days
How it was run: as §1

[13] = test system: corn (Zea mays); assay: Test A postemergence, corn; settings: visual injury, 0 to 100 scale (0 no effect, 100 complete control), approximately 10 days
How it was run: as §1

[14] = test system: barnyardgrass (Echinochloa crus-galli); assay: Test B flooded paddy test, barnyardgrass; settings: applied to paddy water, visual rating after 13 to 15 days, scale 0 (no effect) to 100 (complete control)
How it was run: as §2

[15] = test system: kochia (Kochia scoparia); assay: Test A postemergence, kochia; settings: visual injury, 0 to 100 scale (0 no effect, 100 complete control), approximately 10 days
How it was run: as §1

[16] = test system: pigweed (Amaranthus retroflexus); assay: Test A preemergence, pigweed; settings: 0 to 100 scale (0 no effect, 100 complete control)
How it was run: as §1

[17] = test system: barnyardgrass (Echinochloa crus-galli); assay: Test A postemergence, barnyardgrass; settings: visual injury, 0 to 100 scale (0 no effect, 100 complete control), approximately 10 days
How it was run: as §1

[18] = test system: ducksalad (Heteranthera limosa); assay: Test B flooded paddy test, ducksalad; settings: applied to paddy water, visual rating after 13 to 15 days, scale 0 (no effect) to 100 (complete control)
How it was run: as §2

[19] = test system: pigweed (Amaranthus retroflexus); assay: Test A postemergence, pigweed; settings: visual injury, 0 to 100 scale (0 no effect, 100 complete control), approximately 10 days
How it was run: as §1

[20] = test system: foxtail, giant (Setaria faberii); assay: Test A preemergence, giant foxtail; settings: 0 to 100 scale (0 no effect, 100 complete control)
How it was run: as §1

SMILES	Plant response rating, Ryegrass, Italian ([1]; 125 g ai/ha)	Plant response rating, Ryegrass, Italian ([1]; 500 g ai/ha)	Plant response rating, Blackgrass ([3]; 125 g ai/ha)	Plant response rating, Blackgrass ([3]; 500 g ai/ha)	Plant response rating, Kochia ([4]; 125 g ai/ha)	Plant response rating, Kochia ([4]; 500 g ai/ha)	Plant response rating, Galium ([5]; 125 g ai/ha)	Plant response rating, Galium ([5]; 500 g ai/ha)	Plant response rating, Ragweed ([6]; 125 g ai/ha)	Plant response rating, Ragweed ([6]; 500 g ai/ha)	Plant response rating, Ryegrass, Italian ([7]; 125 g ai/ha)	Plant response rating, Ryegrass, Italian ([7]; 500 g ai/ha)	Plant response rating, Barnyardgrass ([8]; 125 g ai/ha)	Plant response rating, Barnyardgrass ([8]; 500 g ai/ha)	Plant response rating, Foxtail, Giant ([9]; 125 g ai/ha)	Plant response rating, Foxtail, Giant ([9]; 500 g ai/ha)	Plant response rating, Wheat ([10]; 125 g ai/ha)	Plant response rating, Wheat ([10]; 500 g ai/ha)	Plant response rating, Ragweed ([12]; 125 g ai/ha)	Plant response rating, Ragweed ([12]; 500 g ai/ha)	also measured
CN1CC(c2cccc(OC(F)(F)C(F)OC(F)(F)F)c2)C(C(=O)Nc2ccccc2F)C1=O (stereo not drawn) [Compound 41]	20	60	0	30	30	60	40	60	20	70	0	20	20	90	50	70	0	40	0	0	Plant response rating, Rice (Flood) ([2]; 250 g ai/ha): 20; Plant response rating, Sedge, Umbrella (Flood) ([11]; 250 g ai/ha): 0; Plant response rating, Corn ([13]; 125 g ai/ha): 0; Plant response rating, Corn ([13]; 500 g ai/ha): 40; Plant response rating, Barnyardgrass (Flood) ([14]; 250 g ai/ha): 0; Plant response rating, Kochia ([15]; 125 g ai/ha): 20; Plant response rating, Kochia ([15]; 500 g ai/ha): 60; Plant response rating, Pigweed ([16]; 125 g ai/ha): 70; Plant response rating, Pigweed ([16]; 500 g ai/ha): 90; Plant response rating, Barnyardgrass ([17]; 125 g ai/ha): 50; Plant response rating, Barnyardgrass ([17]; 500 g ai/ha): 50; Plant response rating, Ducksalad (Flood) ([18]; 250 g ai/ha): 100; Plant response rating, Pigweed ([19]; 125 g ai/ha): 40; Plant response rating, Pigweed ([19]; 500 g ai/ha): 80; Plant response rating, Foxtail, Giant ([20]; 125 g ai/ha): 80; Plant response rating, Foxtail, Giant ([20]; 500 g ai/ha): 90
O=C1NCC(c2cccc(Oc3ccccn3)c2)C1C(=O)Nc1ccc(F)c(F)c1F (stereo not drawn) [Compound 42]	0	0	0	0	0	0	0	30	0	0	0	0	40	80	50	70	0	0	0	0	Plant response rating, Rice (Flood) ([2]; 500 g ai/ha): 0; Plant response rating, Sedge, Umbrella (Flood) ([11]; 500 g ai/ha): 0; Plant response rating, Corn ([13]; 125 g ai/ha): 0; Plant response rating, Corn ([13]; 500 g ai/ha): 0; Plant response rating, Barnyardgrass (Flood) ([14]; 500 g ai/ha): 0; Plant response rating, Kochia ([15]; 125 g ai/ha): 0; Plant response rating, Kochia ([15]; 500 g ai/ha): 0; Plant response rating, Pigweed ([16]; 125 g ai/ha): 0; Plant response rating, Pigweed ([16]; 500 g ai/ha): 10; Plant response rating, Barnyardgrass ([17]; 125 g ai/ha): 40; Plant response rating, Barnyardgrass ([17]; 500 g ai/ha): 60; Plant response rating, Ducksalad (Flood) ([18]; 500 g ai/ha): 80; Plant response rating, Pigweed ([19]; 125 g ai/ha): 0; Plant response rating, Pigweed ([19]; 500 g ai/ha): 0; Plant response rating, Foxtail, Giant ([20]; 125 g ai/ha): 80; Plant response rating, Foxtail, Giant ([20]; 500 g ai/ha): 90
CN1CC(c2cccc(OC(F)(F)C(F)OC(F)(F)F)c2)C(C(=O)Nc2cccc(F)c2F)C1=O (stereo not drawn) [Compound 48]	30	30	0	0	0	20	60	60	0	0	0	40	80	90	60	80	0	30	0	0	Plant response rating, Rice (Flood) ([2]; 250 g ai/ha): 0; Plant response rating, Sedge, Umbrella (Flood) ([11]; 250 g ai/ha): 0; Plant response rating, Corn ([13]; 125 g ai/ha): 0; Plant response rating, Corn ([13]; 500 g ai/ha): 40; Plant response rating, Barnyardgrass (Flood) ([14]; 250 g ai/ha): 0; Plant response rating, Kochia ([15]; 125 g ai/ha): 30; Plant response rating, Kochia ([15]; 500 g ai/ha): 70; Plant response rating, Pigweed ([16]; 125 g ai/ha): 70; Plant response rating, Pigweed ([16]; 500 g ai/ha): 70; Plant response rating, Barnyardgrass ([17]; 125 g ai/ha): 20; Plant response rating, Barnyardgrass ([17]; 500 g ai/ha): 50; Plant response rating, Ducksalad (Flood) ([18]; 250 g ai/ha): 80; Plant response rating, Pigweed ([19]; 125 g ai/ha): 60; Plant response rating, Pigweed ([19]; 500 g ai/ha): 90; Plant response rating, Foxtail, Giant ([20]; 125 g ai/ha): 80; Plant response rating, Foxtail, Giant ([20]; 500 g ai/ha): 90
CON=Cc1cccc(C2CN(C)C(=O)C2C(=O)Nc2ccccc2F)c1 (stereo not drawn) [Compound 53, N-(2-fluorophenyl)-4-[3-[(methoxyimino)methyl]phenyl]-1-methyl-2-oxo-3-pyrrolidinecarboxamide]	0	0	0	20	60	70	0	30	0	0	0	0	90	90	80	90	0	0	0	0	Plant response rating, Rice (Flood) ([2]; 250 g ai/ha): 0; Plant response rating, Sedge, Umbrella (Flood) ([11]; 250 g ai/ha): 0; Plant response rating, Corn ([13]; 125 g ai/ha): 0; Plant response rating, Corn ([13]; 500 g ai/ha): 0; Plant response rating, Barnyardgrass (Flood) ([14]; 250 g ai/ha): 30; Plant response rating, Kochia ([15]; 125 g ai/ha): 0; Plant response rating, Kochia ([15]; 500 g ai/ha): 0; Plant response rating, Pigweed ([16]; 125 g ai/ha): 0; Plant response rating, Pigweed ([16]; 500 g ai/ha): 0; Plant response rating, Barnyardgrass ([17]; 125 g ai/ha): 70; Plant response rating, Barnyardgrass ([17]; 500 g ai/ha): 90; Plant response rating, Ducksalad (Flood) ([18]; 250 g ai/ha): 70; Plant response rating, Pigweed ([19]; 125 g ai/ha): 0; Plant response rating, Pigweed ([19]; 500 g ai/ha): 0; Plant response rating, Foxtail, Giant ([20]; 125 g ai/ha): 90; Plant response rating, Foxtail, Giant ([20]; 500 g ai/ha): 90
CN(C)N=Cc1cccc(C2CN(C)C(=O)C2C(=O)Nc2ccccc2F)c1 (stereo not drawn) [Compound 54]	0	0	0	0	0	0	0	0	0	0	0	0	0	20	0	20	0	0	0	0	Plant response rating, Rice (Flood) ([2]; 250 g ai/ha): 0; Plant response rating, Sedge, Umbrella (Flood) ([11]; 250 g ai/ha): 0; Plant response rating, Corn ([13]; 125 g ai/ha): 0; Plant response rating, Corn ([13]; 500 g ai/ha): 0; Plant response rating, Barnyardgrass (Flood) ([14]; 250 g ai/ha): 0; Plant response rating, Kochia ([15]; 125 g ai/ha): 0; Plant response rating, Kochia ([15]; 500 g ai/ha): 0; Plant response rating, Pigweed ([16]; 125 g ai/ha): 0; Plant response rating, Pigweed ([16]; 500 g ai/ha): 0; Plant response rating, Barnyardgrass ([17]; 125 g ai/ha): 0; Plant response rating, Barnyardgrass ([17]; 500 g ai/ha): 30; Plant response rating, Ducksalad (Flood) ([18]; 250 g ai/ha): 0; Plant response rating, Pigweed ([19]; 125 g ai/ha): 0; Plant response rating, Pigweed ([19]; 500 g ai/ha): 0; Plant response rating, Foxtail, Giant ([20]; 125 g ai/ha): 0; Plant response rating, Foxtail, Giant ([20]; 500 g ai/ha): 70
